# Tests used:
# [1] = RSV long CPE assay (cytopathic effect assay), CC50 toxicity in vitro; assay type: cell-based; conditions: human, Hep2 cells, CCK-8 readout, top concentration 100 μM
# Procedure: (§1) Detect EC50 and CC50 values of anti RSV respiratory tract virus compounds through the cytopathic effect assay.
# (§2) The cell plate was centrifugated (300 rpm) to make the cells adherent to the wall, placed into a 37° C., 5% CO2 incubator overnight.
# (§3) 1) the compound in 100% DMSO underwent a semi logarithmic dilution, then was added to the cell plate with a Echo liquid handler. Ensure that the final concentration of DMSO was 1%;
# (§4) 2) Cell-control hole: no compound and viruse were added; virus-control hole: no compound was added.
# (§5) 2) add CCK-8 (Dojindo-CK04-20, 6 μL/hole) to 384 well plate with Multidrop® automatic liquid distributor;
# (§6) 3) place the plate at a 37° C., 5% CO2 culture incubator for 3˜4 h, read the absorbance value with SPECTRA max 340PC_Molecular device at 450 nm and 630 nm;
# [2] = system: RSV respiratory tract virus (A long strain); assay: RSV long CPE assay (cytopathic effect assay), EC50; assay type: cell-based; conditions: human respiratory syncytial virus, HEp-2, 120 h; Hep2 cells infected with RSV A long strain, 5 days, CCK-8 readout
# Procedure: as §1
# Virus strain: RSV respiratory tract virus (A long strain)
# as §2, §3, §4
# dilute RSV viruses to 100 TCID50/30 μL with medium cultured with 4° C. cells, and then add the diluted viruses to a cell plate (30 μL/hole) with Multidrop® automatic liquid distributor, and then placed into a 37° C., 5% CO2 culture incubator for 5 days.
# 1) after 5 days, observe the pathological change in each hole.
# as §5, §6
EC50 [2] [µM],SMILES,CC50 at 5 days [1] [µM]
< 0.1,"CC(C)OC(=O)N1CC2(C1)C(=O)N(Cc1nc3c(n1CCCC(F)(F)F)CCCC3)c1cc(F)ccc12 [Embodiment 82, Isopropyl 6′-fluoro-2′-oxo-1′-((1-(4,4,4-trifluorobutyl)-4,5,6,7-tetrahydro-1H-benzo[d]imidazol-2-yl)methyl)spiro[azetidine-3,3′-indoline]-1-carboxylate]",> 100
< 0.1,"O=C(C1CC1)N1CC2(C1)C(=O)N(Cc1nc3c(n1CCCC(F)(F)F)CCCC3)c1cc(F)ccc12 [Embodiment 84, 1-(Cyclopropanecarbonyl)-6′-fluoro-1′-((1-(4,4,4-trifluorobutyl)-4,5,6,7-tetrahydro-1H-benzo[d]imidazol-2-yl)methyl)spiro[azetidine-3,3′-indoline]-2′-one]",> 100
< 0.1,"CC(C)OC(=O)N1CC2(C1)C(=O)N(Cc1nc3c(n1CCCC(F)(F)F)CCCC3)c1cc(Cl)ccc12 [Embodiment 81, Isopropyl 6′-chloro-2′-oxo-1′-((1-(4,4,4-trifluorobutyl)-4,5,6,7-tetrahydro-1H-benzo[d]imidazol-2-yl)methyl)spiro[azetidine-3,3′-indoline]-1-carboxylate]",> 100
< 0.1,"O=C(C(F)F)N1CC2(C1)C(=O)N(Cc1nc3c(n1CCCC(F)(F)F)CCCC3)c1ccccc12 [Embodiment 96, 1-(2,2-Difluoroacetyl)-1′-((1-(4,4,4-trifluorobutyl)-4,5,6,7-tetrahydro-1H-benzo[d]imidazol-2-yl)methyl)spiro[azetidine-3,3′-indoline]-2′-one]",> 100
